# “Also recorded” adds a separate entry of the source.
# Columns and labels:
# [1] = biological target: Human ACC1 (Homo sapiens (Human), UniProt Q13085); experiment: ACC1 enzymatic assay (ADP-Glo); assay type: biochemical; set-up: key to Compound IC50 (M) ACC1: *: No detectable inhibition or compound activity; details: recombinant human ACC1 5 nM; 10 concentrations from 300 μM; Runs 1-3
# Description: (§1) Human ACC1 (Cat #50202 Lot #120830) and ACC2 (Cat #50201 Lot #160217) were obtained from BPS Biosciences, San Diego, CA 92121. Human ACC1 had C-terminal flag and His-tags with a MW of 270 KDa after purification from Baculovirus infected Sf9 cell expression system and came as a solution in 50 mM Tris-HCl, pH 8.0, 500 mM NaCl, 10% glycerol, 1 mM DTT, 100 μg/ml FLAG peptide with 70% purity. The stock concentration was 0.25 mg/ml corresponding to 0.926 μM. Human ACC2 was also purified from Baculovirus infected Sf9 expression system. […] The stock concentration was 0.1 mg/ml corresponding to 0.36 μM. The assay buffer for measuring the activity of ACC contained: 30 mM HEPES (pH 7.4), 2 mM MgCl2, 0.01% Brij35, 2 mM DTT, 1% DMSO (solvent for compound). For ACC1 and ACC2 assays, the following concentrations of substrate and cofactors were used: 12 mM NaHCO3, 10 μM acetyl CoA, 10 μM ATP, and 2 mM K-citrate. The recombinant human enzyme was used at 5 nM for ACC1 and 1 nM for ACC2. In brief, enzyme alone in the above buffer without substrate was used for background. All test materials were dissolved in 100% DMSO using acoustic technology (Echo550). The prepared solution was preincubated for 15 min followed by the addition of 5 μL/well of ADP standard. ATP was then added to start the reaction. The assay contents were spun and briefly shaken followed by incubation at room temperature for 1 h. At the end of completion of assay, 5 μL of ADP-Glo was added to each well to stop the reaction. The contents were mixed, spun and incubated at room temperature for 40 min followed by the addition of 10 μL/well of ADP detection reagent. The contents were spun, mixed and covered with plastic to measure luminescence. […] The light generated, measured in a luminometer, correlates to the amount of ADP generated in the ACC assay, which is indicative of ACC activity.
# (§2) The enzyme concentrations for ACC1 and ACC2 were 5 nM and 1 nM, respectively.
# Data represent nM or μM ADP produced, % Activity (relative to no inhibitor controls), and curve fits were performed by GraphPad Prism software. […]
# [2] = biological target: Human ACC2 (Homo sapiens (Human), UniProt O00763); experiment: ACC2 enzymatic assay (ADP-Glo); assay type: biochemical; set-up: key to Compound IC50 (M) ACC2: *: No detectable inhibition or compound activity; details: recombinant human ACC2 1 nM; 10 concentrations from 300 μM; Runs 1-3
# Description: as §1, §2
# Data represent nM or μM ADP produced, % Activity (relative to no inhibitor controls), and curve fits were performed by GraphPad Prism software. The IC50 concentration-response curves were generated for both the ACC1 and ACC2 assays using recombinant human ACC.
# [3] = test system: bone marrow derived macrophages (BMDMs); experiment: LPS-induced glycolysis in bone marrow derived macrophages (Seahorse); assay type: cell-based, mouse; details: LPS + Compound I-1 50 μM, 4 hours
# Description: (§3) Example 10: Treatment of bone marrow derived macrophages Mϕ (BMDMs) with Compound I-1 suppresses lipopolysaccharide (LPS)-induced glycolysis and inflammation. Macrophage were isolated as follows: femurs and tibia were collected from mice, cleaned of any soft tissues and the ends were cut off from each bone. The tibia and femur were then transferred into 1.5 mL Eppendorf tubes and the marrow was extracted via centrifugation (1900 g×5 min), resuspended in DMEM and strained through a 40 μm strainer into a 50 ml falcon tube. The strainer was rinsed with an additional 40 mL of DMEM, the cell suspension was transferred to a T175 flask, an additional 60 mL of DMEM was added and the cells were cultured at 37° C. for 4 hours. Differentiation was initiated by adding 20 mL of L929 fibroblast conditioned media and 12 mL was plated on 100 mm dishes. The cells were then left for 7 days to differentiate into macrophages. […] Changes in gene expression were calculated using 2-delta cT method. Macrophage glycolytic rates were assessed using a Seahorse Bioanalyzer (XFe96, Agilent Scientific Instruments). […] The following day cells were serum-starved for 2 hours then treated with LPS (100 ng/mL) and Compound I-1 (50 μM) and glycolytic rate was analyzed (Agilent Seahorse XFp Cell Energy Phenotype Test Kit, Cat #103275-100).
# [4] = test system: bone marrow derived macrophages (BMDMs); experiment: LPS-induced Il-6 and Il-1b mRNA in BMDMs (RT-qPCR); assay type: cell-based, mouse; details: LPS 10 ng/mL + Compound I-1 50 μM, 4 hours
# Description: as §3
# [5] = test system: female Wistar Han rats; experiment: 4-day oral gavage toxicity study in female rats; details: 4 days; for Compound-related effects in hematology or coagulation test results / Compound-related mortality, clinical observations, body weight effects, or changes in food consumption: 100 or 300 mg/kg/day oral gavage once daily; for Compound-related macroscopic observations: 100 or 300 mg/kg/day
# Human ACC2, sequence (O00763 whole entry): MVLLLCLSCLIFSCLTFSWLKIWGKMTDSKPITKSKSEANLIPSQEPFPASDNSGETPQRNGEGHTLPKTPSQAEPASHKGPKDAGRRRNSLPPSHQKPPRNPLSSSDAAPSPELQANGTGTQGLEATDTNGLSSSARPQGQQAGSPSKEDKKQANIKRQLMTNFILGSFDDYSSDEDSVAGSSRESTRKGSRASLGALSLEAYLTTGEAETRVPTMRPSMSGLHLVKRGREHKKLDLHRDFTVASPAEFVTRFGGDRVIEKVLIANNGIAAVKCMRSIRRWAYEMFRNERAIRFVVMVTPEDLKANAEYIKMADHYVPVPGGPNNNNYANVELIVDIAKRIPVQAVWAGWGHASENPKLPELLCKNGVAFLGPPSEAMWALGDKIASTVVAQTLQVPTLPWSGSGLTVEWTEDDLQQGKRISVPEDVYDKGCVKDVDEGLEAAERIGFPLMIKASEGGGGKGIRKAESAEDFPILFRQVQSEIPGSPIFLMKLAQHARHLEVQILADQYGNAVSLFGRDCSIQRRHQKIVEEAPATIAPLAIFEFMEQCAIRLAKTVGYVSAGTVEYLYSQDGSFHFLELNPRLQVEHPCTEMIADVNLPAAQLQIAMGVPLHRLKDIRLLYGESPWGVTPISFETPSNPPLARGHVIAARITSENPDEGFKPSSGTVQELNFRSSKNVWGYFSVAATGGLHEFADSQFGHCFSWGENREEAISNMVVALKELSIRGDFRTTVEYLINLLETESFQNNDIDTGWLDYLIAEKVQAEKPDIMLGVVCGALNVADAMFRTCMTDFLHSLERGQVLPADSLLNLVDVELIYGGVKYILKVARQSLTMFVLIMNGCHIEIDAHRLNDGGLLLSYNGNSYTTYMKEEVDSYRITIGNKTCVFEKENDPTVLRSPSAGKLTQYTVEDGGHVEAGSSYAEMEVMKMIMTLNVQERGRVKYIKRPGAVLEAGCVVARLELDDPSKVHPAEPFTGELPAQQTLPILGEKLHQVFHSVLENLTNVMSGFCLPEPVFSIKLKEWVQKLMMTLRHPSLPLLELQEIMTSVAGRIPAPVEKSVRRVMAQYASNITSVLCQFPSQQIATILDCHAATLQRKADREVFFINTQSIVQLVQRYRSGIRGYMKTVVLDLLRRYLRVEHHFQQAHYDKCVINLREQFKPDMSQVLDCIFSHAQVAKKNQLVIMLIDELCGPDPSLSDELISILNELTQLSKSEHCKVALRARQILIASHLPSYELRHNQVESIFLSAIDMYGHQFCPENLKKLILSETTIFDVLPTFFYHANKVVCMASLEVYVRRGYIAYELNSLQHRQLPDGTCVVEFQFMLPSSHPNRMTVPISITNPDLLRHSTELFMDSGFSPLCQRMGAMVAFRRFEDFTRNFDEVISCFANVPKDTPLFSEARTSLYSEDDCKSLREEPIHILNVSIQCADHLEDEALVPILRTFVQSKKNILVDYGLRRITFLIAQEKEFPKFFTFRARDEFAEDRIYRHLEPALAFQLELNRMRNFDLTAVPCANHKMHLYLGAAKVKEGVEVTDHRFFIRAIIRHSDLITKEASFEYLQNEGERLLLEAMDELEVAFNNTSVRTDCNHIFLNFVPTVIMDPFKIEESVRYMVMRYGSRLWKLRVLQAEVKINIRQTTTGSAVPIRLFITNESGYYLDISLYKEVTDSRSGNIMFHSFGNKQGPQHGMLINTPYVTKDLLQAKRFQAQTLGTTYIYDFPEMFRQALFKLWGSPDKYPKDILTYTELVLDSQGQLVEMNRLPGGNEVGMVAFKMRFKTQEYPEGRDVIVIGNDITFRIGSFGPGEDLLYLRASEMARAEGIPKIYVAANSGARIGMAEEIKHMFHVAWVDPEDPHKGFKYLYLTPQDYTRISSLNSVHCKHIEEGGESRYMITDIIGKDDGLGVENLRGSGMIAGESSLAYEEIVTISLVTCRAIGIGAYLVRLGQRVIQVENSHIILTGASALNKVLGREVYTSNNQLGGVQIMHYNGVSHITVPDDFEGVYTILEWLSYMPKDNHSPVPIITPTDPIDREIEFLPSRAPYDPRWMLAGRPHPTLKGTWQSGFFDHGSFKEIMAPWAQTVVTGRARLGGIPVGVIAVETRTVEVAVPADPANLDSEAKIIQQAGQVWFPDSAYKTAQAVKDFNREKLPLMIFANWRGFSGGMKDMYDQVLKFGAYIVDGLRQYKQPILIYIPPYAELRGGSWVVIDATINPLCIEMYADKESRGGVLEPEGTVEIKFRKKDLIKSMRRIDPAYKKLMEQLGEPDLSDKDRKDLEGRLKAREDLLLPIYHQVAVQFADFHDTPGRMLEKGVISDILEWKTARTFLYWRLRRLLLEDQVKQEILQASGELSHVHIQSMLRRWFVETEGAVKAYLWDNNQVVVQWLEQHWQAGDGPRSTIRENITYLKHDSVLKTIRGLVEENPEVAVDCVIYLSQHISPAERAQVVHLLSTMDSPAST
Structure (SMILES),Compound IC50 (M) ACC1 [1],Compound IC50 (M) ACC2 [2],"LPS-induced glycolysis (glycolytic rate, Seahorse) [3]",Il-1b mRNA (marker of inflammation) [4],Il-6 mRNA (marker of inflammation) [4],Adversity of the effects at this dose ([5]; 100 mg/kg/day),Albumin:globulin ratio (clinical chemistry) ([5]; 100 mg/kg/day),Globulin concentration (clinical chemistry) ([5]; 100 mg/kg/day),Adversity of the effects at this dose ([5]; 300 mg/kg/day),Albumin:globulin ratio (clinical chemistry) ([5]; 300 mg/kg/day),Globulin concentration (clinical chemistry) ([5]; 300 mg/kg/day),Kidney microscopic findings ([5]; 300 mg/kg/day),Compound-related effects in hematology or coagulation test results [5],"Compound-related mortality, clinical observations, body weight effects, or changes in food consumption [5]",Compound-related macroscopic observations [5],Liver microscopic findings ([5]; >100 mg/kg/day (so in the source)),Liver microscopic findings ([5]; 300 mg/kg/day),"Serum urea nitrogen concentration ([5]; 300 mg/kg/day, considered potentially compound-related)"
"CC(C)(CCCCc1ccc(CCCCC(C)(C)C(=O)O)cc1)C(=O)O [Compound I-1, 6-[4-(5-carboxy-5-methylhexyl)-phenyl]-2,2-dimethylhexanoic acid]",*,*,suppression,suppression,suppression,nonadverse,minimally higher,minimally lower,adverse,minimally higher,minimally lower,"tubular degeneration/necrosis, tubular regeneration, and increased mitoses",No,No,No,increase in mitoses in hepatocytes,,
"CC(C)(CCCCc1cccc(CCCCC(C)(C)C(=O)O)c1)C(=O)O [Compound I-32, 6-[3-(5-carboxy-5-methylhexyl)-phenyl]-2,2-dimethylhexanoic acid]",,*,,,,,,,nonadverse,minimally higher,minimally lower,,No,No,No,,increase in mitoses in hepatocytes; also recorded: periportal hepatocyte vacuolation,Minimally lower
